Data as given in PMC11292009, “Mapping protein binding sites by photoreactive fragment pharmacophores” (Communications Chemistry, 2024).
Several values for one entry are separate records, joined by “and”; a condition that tells them apart may be missing. Equal entries are not always repeated.

Key:
[1] = tested on: T1, STAT5B-NTD; test: Intact MS labeling screen, STAT5B-NTD conjugated with photocatalyst Ir-G2-PEG3-COOH (450 nm); format: binding; conditions: 450 nm 10 min;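 also: 0.14 µL of 100 mM DMSO fragment stock added to the conjugate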
T1 construct: His-SUMO (N, cleaved yes); made in house; host or cells: E. coli BL21 RILP
Summary of the method: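 Ir-G2-PEG3-COOH photocatalyst (10 eq) activated 30 min with EDC/NHS/BOP, then conjugated to STAT5B-NTD (7 µM) overnight at RT or 1 h at 37 °C in dark. PhP added, 1 h dark, then 450 nm irradiation 10 min at 4 °C; labeling read by intact LC-MS, positive ion mode, m/z 100–2000.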

[2] = tested on: T1, STAT5B-NTD; test: Intact MS photoaffinity labeling screen, STAT5B-NTD (365 nm, UHPLC-MS); format: binding;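 as to MS labeling percentage, STAT5B: 0.17 µL of 100 mM DMSO fragment stock added to the protein sample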
Summary of the method: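 UV irradiation at 365 nm for 10 min at 4 °C. Labeling read by intact-protein UHPLC-MS, positive ion mode, m/z 100–2000.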

[3] = tested on: MOLM-13 cells; test: CellTiter-Blue cell viability assay, MOLM-13; format: cell-based; conditions: Homo sapiens, MOLM-13, 72 h
Method: MV4-11 and MOLM-13 cell lines were purchased from DSMZ (Braunschweig, Germany), and grown at 37 °C and 5% CO2 in RPMI 1640 medium (Gibco^TM, Thermo Fisher Scientific). Media were supplemented with 10% fetal calf serum (FCS), 10 U/mL penicillin, 10 µg/mL streptomycin and 2 mM L-glutamine (all Gibco^TM, Thermo Fisher Scientific).
To determine the IC50 of the selected compounds on the cell lines, CellTiter-Blue® cell viability assay (Promega) was performed. For this, cells were seeded in 96-well flat bottom plates at a cell density of 10,000 cells/well. Cells were treated in triplicates with the compound of interest at various concentrations or with 10 μM Bortezomib (S1013; Selleck Chemicals, Houston, TX, USA) as a positive control. Cell viability of treated cell lines was measured using CellTiter-Blue® after 72 h incubation. Plates were measured using a GloMax® plate reader (Promega) and IC50 values were determined by non-linear regression using the GraphPad Prism 9.1.1 (GraphPad Software, Inc.) and the data are reported as mean values ± SEM.

[4] = tested on: myoglobin (Myo); test: Intact protein MS photoaffinity labeling screen, myoglobin; format: binding; conditions: intact protein MS after 10 min irradiation
Summary of the method: (§1)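 Labeling % derives from mass additions observed by intact protein MS on each well, measured without transfer from the plate; fragments, one per well, had been pre-incubated 15 min with protein.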

[5] = tested on: T2, KRas^G12D; test: Intact MS photoaffinity labeling screen, KRas G12D (302 nm, LCMS-TOF); format: binding; conditions: for MS labeling percentage, KRas: KRas G12D, 302 nm 10 min
T2 construct: purchased GSK/GenScript
Summary of the method: (§2)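 Labeling detected as mass additions in deconvoluted intact-protein LCMS-TOF spectra. Protein at 1 μM in PBS was first mixed with one fragment per well on ice for 15 min, followed by 10 min UV exposure at 302 nm.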

[6] = tested on: lysozyme (Lyo); test: Intact protein MS photoaffinity labeling screen, lysozyme; format: binding; conditions: intact protein MS after 10 min irradiation
Summary of the method: as §1

[7] = tested on: CA, Lyo, Myo, BRD4-BD1, KRas G12D, STAT5B-NTD; test: Intact MS labeling compared over all protein targets; format: binding; conditions: for Labeling of the other protein targets (vs. preferred target): each of the other targets
Summary of the method: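 Each fragment incubated 15 min with protein, then UV-irradiated 10 min at 302 or 365 nm to crosslink. Labeling % read by intact-protein LC-TOF MS from mass additions. For BRD4-BD1 and KRas G12D, protein stock was 1 µM in PBS, fragment stock 20 mM, incubation was on ice and irradiation at 302 nm.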

[8] = tested on: T3, BRD4-BD1; test: Intact MS photoaffinity labeling screen, BRD4-BD1 (302 nm, LCMS-TOF); format: binding; conditions: for MS labeling percentage, BRD4: BRD4-BD1, 302 nm 10 min
T3 construct: screened the PhP library against the first bromodomain of BRD4 (BRD4-BD1); purchased GSK/GenScript
Summary of the method: as §2

[9] = tested on: carbonic anhydrase II (CA); test: Intact protein MS photoaffinity labeling screen, carbonic anhydrase; format: binding; conditions: intact protein MS after 10 min irradiation
Summary of the method: as §1

[10] = sheet PhP, experimental hit status flag given as 0 or 1
[11] = PhP library sheet "PhP", binary flag printed as 0 or 1, key not given

IC50 [3] [µM]	MS labeling percentage, CA [9] [%]	SMILES	MS labeling percentage, STAT5B+photocat [1] [%]	STAT5B-NTD (experimental hit status) [2, 10]	MS labeling percentage, Myo [4] [%]	MS labeling percentage, KRas [5] [%]	KRAS-G12D (experimental hit status) [5, 10]	MS labeling percentage, Lyo [6] [%]	Labeling of the other protein targets (vs. preferred target) [7]	BRD4-BD1 (experimental hit status) [8, 10]	MS labeling percentage, STAT5B ([2]; STAT5B-NTD, 365 nm 10 min, no photocatalyst) [%]	Labeling efficiency over all protein targets (mean ± spread) ([7]; over all protein targets) [%]	MS labeling percentage, BRD4 [8] [%]	STAT5B-NTD (experimental hit status) [2, 11]	KRAS-G12D (experimental hit status) [5, 11]	BRD4-BD1 (experimental hit status) [8, 11]
100	0.3	Cc1[nH]c2ccccc2c1SCCNC(=O)CCC1(C)N=N1 [PhP065, c1cccc(c12)c(c(C)[nH]2)SCCNC(=O)CCC3(C)N=N3]	11.2	1	0.1	0.2	0	2.6	> 3% and < 3%	0	–	–	–	–	–	–
68.2	0	CC1(CCC(=O)NCCc2csc(-c3ccccc3)n2)N=N1 [PhP097, N1=NC1(C)CCC(=O)NCCc2csc(n2)-c3ccccc3]	4.2	–	0.1	0.2	–	1.8	> 3% and < 3%	–	–	–	0.5	1	0	0

SMILES	IC50 [3] [µM]	MS labeling percentage, CA [9] [%]	MS labeling percentage, STAT5B+photocat [1] [%]	STAT5B-NTD (experimental hit status) [2, 10]	MS labeling percentage, Myo [4] [%]	MS labeling percentage, KRas [5] [%]	KRAS-G12D (experimental hit status) [5, 10]	MS labeling percentage, Lyo [6] [%]	Labeling of the other protein targets (vs. preferred target) [7]	BRD4-BD1 (experimental hit status) [8, 10]	MS labeling percentage, STAT5B ([2]; STAT5B-NTD, 365 nm 10 min, no photocatalyst) [%]	Labeling efficiency over all protein targets (mean ± spread) ([7]; over all protein targets) [%]	MS labeling percentage, BRD4 [8] [%]	STAT5B-NTD (experimental hit status) [2, 11]	KRAS-G12D (experimental hit status) [5, 11]	BRD4-BD1 (experimental hit status) [8, 11]
Cc1ncc(CO)c(CNC(=O)CCC2(C)N=N2)c1O [PhP072, Cc1ncc(CO)c(c1O)CNC(=O)CCC2(C)N=N2]	–	7.7	3.3	0	3.3	12.2	1	1	–	1	0	4.4 ± 4.3	2.2	–	–	–
